# Biological target: baculovirus-expressed ALK (Homo sapiens, UniProt Q9UM73)
# Experiment: ALK Kinase Assay (ELISA/TRF, PLC-γ substrate); also: 1 µM ATP (Km level)
# Assay type: biochemical
# Conditions: read-out: ALK Kinase Inhibition (IC50)
# Procedure: Example compounds were tested for their ability to inhibit the kinase activity of baculovirus-expressed ALK using a modification of the ELISA protocol reported for trkA in Angeles, T. S. et al., Anal. Biochem. 1996, 236, 49-55, which is incorporated herein by reference in its entirety. Phosphorylation of the substrate, phospholipase C-gamma (PLC-γ) generated as a fusion protein with glutathione S-transferase (GST) as reported in Rotin, D. et al., EMBO J. 1992, 11, 559-567, which is incorporated herein by reference in its entirety, was detected with a europium-labeled anti-phosphotyrosine antibody and measured by time-resolved fluorescence (TRF). Briefly, each 96-well plate was coated with 100 μL/well of 10 μg/mL substrate (phospholipase C-γ) in Tris-buffered saline (TBS). […] The reaction was initiated by adding enzyme (30 ng/ml ALK) and was allowed to proceed at 37° C. for 15 minutes. Detection of the phosphorylated product was performed by adding 100 μl/well of Eu-N1 labeled PT66 antibody (Perkin Elmer # AD0041). Incubation at 37° C. then proceeded for one (1) hour, followed by addition of 100 μL enhancement solution (Wallac #1244-105). The plate was gently agitated and after thirty minutes, the fluorescence of the resulting solution was measured using the EnVision 2100 (or 2102) multilabel plate reader (Perkin Elmer).
# Data analysis was performed using ActivityBase (IDBS, Guilford, UK). IC50 values were calculated by plotting percent inhibition versus log10 of the concentration of compound and fitting to the nonlinear regression sigmoidal dose-response (variable slope) equation in XLFit (IDBS, Guilford, UK).
# baculovirus-expressed ALK, sequence (Q9UM73 19-1620): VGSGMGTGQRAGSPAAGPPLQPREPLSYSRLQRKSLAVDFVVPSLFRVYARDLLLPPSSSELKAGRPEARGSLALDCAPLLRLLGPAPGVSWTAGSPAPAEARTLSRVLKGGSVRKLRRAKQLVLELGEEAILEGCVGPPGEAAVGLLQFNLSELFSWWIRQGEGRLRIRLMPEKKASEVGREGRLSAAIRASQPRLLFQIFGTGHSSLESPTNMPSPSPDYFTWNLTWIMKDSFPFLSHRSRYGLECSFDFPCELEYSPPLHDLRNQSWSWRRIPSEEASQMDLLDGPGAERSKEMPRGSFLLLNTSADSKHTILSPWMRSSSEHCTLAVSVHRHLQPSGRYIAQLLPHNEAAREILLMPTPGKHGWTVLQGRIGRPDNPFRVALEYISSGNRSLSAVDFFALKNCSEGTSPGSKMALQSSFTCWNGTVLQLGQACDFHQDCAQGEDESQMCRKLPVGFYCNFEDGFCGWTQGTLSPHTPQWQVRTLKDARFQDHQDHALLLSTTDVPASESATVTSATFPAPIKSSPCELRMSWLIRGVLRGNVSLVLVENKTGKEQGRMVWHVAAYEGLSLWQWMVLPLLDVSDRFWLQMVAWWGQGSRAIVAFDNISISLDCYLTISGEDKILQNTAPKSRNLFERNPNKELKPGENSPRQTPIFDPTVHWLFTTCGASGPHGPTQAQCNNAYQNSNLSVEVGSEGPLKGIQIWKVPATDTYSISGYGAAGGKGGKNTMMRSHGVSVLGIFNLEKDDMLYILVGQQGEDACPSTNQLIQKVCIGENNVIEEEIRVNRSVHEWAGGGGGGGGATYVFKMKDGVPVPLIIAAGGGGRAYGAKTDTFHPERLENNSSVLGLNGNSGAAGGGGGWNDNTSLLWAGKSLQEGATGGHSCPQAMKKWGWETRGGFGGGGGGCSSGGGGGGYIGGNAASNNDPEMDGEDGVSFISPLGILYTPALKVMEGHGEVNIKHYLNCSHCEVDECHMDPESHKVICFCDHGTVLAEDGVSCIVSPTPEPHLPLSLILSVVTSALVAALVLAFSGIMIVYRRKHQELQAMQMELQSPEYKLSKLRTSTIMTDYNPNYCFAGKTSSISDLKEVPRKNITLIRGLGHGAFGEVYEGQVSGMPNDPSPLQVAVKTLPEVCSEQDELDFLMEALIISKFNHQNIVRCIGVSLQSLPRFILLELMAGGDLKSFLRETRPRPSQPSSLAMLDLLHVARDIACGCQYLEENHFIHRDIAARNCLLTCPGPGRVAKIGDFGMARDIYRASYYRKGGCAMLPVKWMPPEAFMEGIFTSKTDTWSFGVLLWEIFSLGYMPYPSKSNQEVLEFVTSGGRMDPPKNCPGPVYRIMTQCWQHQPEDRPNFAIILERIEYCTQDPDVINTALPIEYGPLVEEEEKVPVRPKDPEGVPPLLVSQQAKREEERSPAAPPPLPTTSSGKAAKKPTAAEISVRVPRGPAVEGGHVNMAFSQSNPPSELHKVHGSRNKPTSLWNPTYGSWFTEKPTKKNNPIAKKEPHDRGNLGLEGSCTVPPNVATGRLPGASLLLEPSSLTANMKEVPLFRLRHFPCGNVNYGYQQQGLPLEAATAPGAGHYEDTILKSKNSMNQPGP
row,IC50 [nM],Structure (SMILES)
1,100 to 1000,"O=C(NCc1csc(-c2ccccc2)n1)c1cccc(-c2cnc3c(c2)N(Cc2cc(Cl)ccc2C(F)(F)F)CCN3)c1 [Example 340, 3-{1-[5-Chloro-2-(trifluoromethyl)benzyl]-1,2,3,4-tetrahydropyrido[2,3-b]pyrazin-7-yl}-N-(2-phenylthiazol-4-ylmethyl)benzamide]"
2,100 to 1000,"O=C(c1ccc(-c2cnc3c(c2)N(Cc2cc(Cl)ccc2C(F)(F)F)CCN3)cc1)N1CCN(c2ccccc2Cl)CC1 [Example 426, [4-(2-Chlorophenyl)piperazin-1-yl]-(4-{1-[5-chloro-2-(trifluoromethyl)benzyl]-1,2,3,4-tetrahydropyrido[2,3-b]pyrazin-7-yl}phenyl)methanone]"
3,100 to 1000,"O=C(c1ccc(-c2cnc3c(c2)N(Cc2cc(Cl)ccc2C(F)(F)F)CCN3)cc1)N1CCOCC1 [Example 408, (4-{1-[5-Chloro-2-(trifluoromethyl)benzyl]-1,2,3,4-tetrahydropyrido[2,3-b]pyrazin-7-yl}phenyl)morpholin-4-ylmethanone]"
4,100 to 1000,"O=C(c1cccc(-c2cnc3c(c2)N(Cc2cc(Cl)ccc2C(F)(F)F)CCN3)c1)N1CCN(c2ccc(Cl)c(Cl)c2)CC1 [Example 317, (3-{1-[5-Chloro-2-(trifluoromethyl)benzyl]-1,2,3,4-tetrahydropyrido[2,3-b]pyrazin-7-yl}phenyl)-[4-(3,4-dichlorophenyl)piperazin-1-yl]methanone]"
5,1000 to 10000,"O=C(NCc1cccc(Cl)c1)c1cccc(-c2cnc3c(c2)N(Cc2cc(Cl)ccc2C(F)(F)F)CCN3)c1 [Example 350, N-(3-Chlorobenzyl)-3-{1-[5-Chloro-2-(trifluoromethyl)benzyl]-1,2,3,4-tetrahydropyrido[2,3-b]pyrazin-7-yl}benzamide]"
6,100 to 1000,"O=C(NCc1ccc(C(F)(F)F)cc1)c1ccc(-c2cnc3c(c2)N(Cc2cc(Cl)ccc2C(F)(F)F)CCN3)cc1 [Example 396, 4-{1-[5-Chloro-2-(trifluoromethyl)benzyl]-1,2,3,4-tetrahydropyrido[2,3-b]pyrazin-7-yl}-N-[4-(trifluoromethyl)benzyl]benzamide]"
7,100 to 1000,"O=C(c1cccc(-c2cnc3c(c2)N(Cc2cc(Cl)ccc2C(F)(F)F)CCN3)c1)N1CCN(c2ccccc2C(F)(F)F)CC1 [Example 319, (3-{1-[5-Chloro-2-(trifluoromethyl)benzyl]-1,2,3,4-tetrahydropyrido[2,3-b]pyrazin-7-yl}phenyl)-{4-[2-(trifluoromethyl)phenyl]piperazin-1-yl}methanone]"
8,< 100,"O=C(c1ccc(-c2cnc3c(c2)N(Cc2cc(Cl)ccc2C(F)(F)F)CCN3)cc1)N1CCC[C@H]1CN1CCCC1 [Example 430, (4-{1-[5-Chloro-2-(trifluoromethyl)benzyl]-1,2,3,4-tetrahydropyrido[2,3-b]pyrazin-7-yl}phenyl)-((S)-2-pyrrolidin-1-ylmethylpyrrolidin-1-yl)methanone]"
9,100 to 1000,"O=C(c1cccc(-c2cnc3c(c2)N(Cc2cc(Cl)ccc2C(F)(F)F)CCN3)c1)N1CCN(CCc2ccccc2)CC1 [Example 359, (3-{1-[5-Chloro-2-(trifluoromethyl)benzyl]-1,2,3,4-tetrahydropyrido[2,3-b]pyrazin-7-yl}phenyl)-(4-phenethylpiperazin-1-yl)methanone]"
10,100 to 1000,"O=C(NCC(c1ccccc1)c1ccccc1)c1cccc(-c2cnc3c(c2)N(Cc2cc(Cl)ccc2C(F)(F)F)CCN3)c1 [Example 328, 3-{1-[5-Chloro-2-(trifluoromethyl)benzyl]-1,2,3,4-tetrahydropyrido[2,3-b]pyrazin-7-yl}-N-(2,2-diphenylethyl)benzamide]"
11,100 to 1000,"COc1ccc(CNC(=O)c2cccc(-c3cnc4c(c3)N(Cc3cc(Cl)ccc3C(F)(F)F)CCN4)c2)cc1 [Example 354, 3-{1-[5-Chloro-2-(trifluoromethyl)benzyl]-1,2,3,4-tetrahydropyrido[2,3-b]pyrazin-7-yl}-N-(4-methoxybenzyl)benzamide]"
12,< 100,"O=C(c1ccccc1)N1CCN(C(=O)c2ccc(-c3cnc4c(c3)N(Cc3cc(Cl)ccc3C(F)(F)F)CCN4)cc2)CC1 [Example 385, (4-Benzoylpiperazin-1-yl)-(4-{1-[5-chloro-2-(trifluoromethyl)benzyl]-1,2,3,4-tetrahydropyrido[2,3-b]pyrazin-7-yl}phenyl)methanone]"
13,100 to 1000,"O=C(NCCOc1ccccc1)c1cccc(-c2cnc3c(c2)N(Cc2cc(Cl)ccc2C(F)(F)F)CCN3)c1 [Example 355, 3-{1-[5-Chloro-2-(trifluoromethyl)benzyl]-1,2,3,4-tetrahydropyrido[2,3-b]pyrazin-7-yl}-N-(2-phenoxyethyl)benzamide]"
14,1000 to 10000,"O=C(NCc1ccc(OC(F)(F)F)cc1)c1cccc(-c2cnc3c(c2)N(Cc2cc(Cl)ccc2C(F)(F)F)CCN3)c1 [Example 331, 3-{1-[5-Chloro-2-(trifluoromethyl)benzyl]-1,2,3,4-tetrahydropyrido[2,3-b]pyrazin-7-yl}-N-[4-(trifluoromethoxy)benzyl]benzamide]"

# Continued, molecule first:
row,Structure (SMILES),IC50 [nM]
1,"O=C(c1ccc(-c2cnc3c(c2)N(Cc2cc(Cl)ccc2C(F)(F)F)CCN3)cc1)N1CCN(CCc2ccccn2)CC1 [Example 394, (4-{1-[5-Chloro-2-(trifluoromethyl)benzyl]-1,2,3,4-tetrahydropyrido[2,3-b]pyrazin-7-yl}phenyl)-[4-(2-pyridin-2-yl-ethyl)piperazin-1-yl]methanone]",< 100
2,"CC(=O)N1CCN(C(=O)c2ccc(-c3cnc4c(c3)N(Cc3cc(Cl)ccc3C(F)(F)F)CCN4)cc2)CC1 [Example 392, 1-[4-(4-{1-[5-Chloro-2-(trifluoromethyl)benzyl]-1,2,3,4-tetrahydropyrido[2,3-b]pyrazin-7-yl}benzoyl)piperazin-1-yl]ethanone]",< 100
3,"O=C(c1cccc(-c2cnc3c(c2)N(Cc2cc(Cl)ccc2C(F)(F)F)CCN3)c1)N1CCC(c2noc3cc(F)ccc23)CC1 [Example 325, (3-{1-[5-Chloro-2-(trifluoromethyl)benzyl]-1,2,3,4-tetrahydropyrido[2,3-b]pyrazin-7-yl}phenyl)-[4-(6-fluorobenzo[d]isoxazol-3-yl)piperidin-1-yl]methanone]",100 to 1000
4,"O=C(c1ccc(-c2cnc3c(c2)N(Cc2cc(Cl)ccc2C(F)(F)F)CCN3)cc1)N1CCN(Cc2ccc(Cl)cc2)CC1 [Example 383, [4-(4-Chlorobenzyl)piperazin-1-yl]-(4-{1-[5-chloro-2-(trifluoromethyl)benzyl]-1,2,3,4-tetrahydropyrido[2,3-b]pyrazin-7-yl}phenyl)methanone]",100 to 1000
5,"O=C(NCC(c1ccccc1)c1ccccc1)c1ccc(-c2cnc3c(c2)N(Cc2cc(Cl)ccc2C(F)(F)F)CCN3)cc1 [Example 391, 4-{1-[5-Chloro-2-(trifluoromethyl)benzyl]-1,2,3,4-tetrahydropyrido[2,3-b]pyrazin-7-yl}-N-(2,2-diphenylethyl)benzamide]",100 to 1000
6,"O=C(c1ccc(-c2cnc3c(c2)N(Cc2cc(Cl)ccc2C(F)(F)F)CCN3)cc1)N1CCC(O)(c2ccc(Cl)cc2)CC1 [Example 371, [4-(4-Chlorophenyl)-4-hydroxypiperidin-1-yl]-(4-{1-[5-chloro-2-(trifluoromethyl)benzyl]-1,2,3,4-tetrahydropyrido[2,3-b]pyrazin-7-yl}phenyl)methanone]",100 to 1000
7,"O=C(c1ccc(-c2cnc3c(c2)N(Cc2cc(Cl)ccc2C(F)(F)F)CCN3)cc1)N1CCN(c2ncccn2)CC1 [Example 369, (4-{1-[5-Chloro-2-(trifluoromethyl)benzyl]-1,2,3,4-tetrahydropyrido[2,3-b]pyrazin-7-yl}phenyl)-(4-pyrimidin-2-ylpiperazin-1-yl)methanone]",100 to 1000
8,"O=C(c1cccc(-c2cnc3c(c2)N(Cc2cc(Cl)ccc2C(F)(F)F)CCN3)c1)N1CCOCC1 [Example 341, (3-{1-[5-Chloro-2-(trifluoromethyl)benzyl]-1,2,3,4-tetrahydropyrido[2,3-b]pyrazin-7-yl}phenyl)morpholin-4-ylmethanone]",100 to 1000
9,"O=C(c1cccc(-c2cnc3c(c2)N(Cc2cc(Cl)ccc2C(F)(F)F)CCN3)c1)N1CCN(c2ncnc3ccsc23)CC1 [Example 320, (3-{1-[5-Chloro-2-(trifluoromethyl)benzyl]-1,2,3,4-tetrahydropyrido[2,3-b]pyrazin-7-yl}phenyl)-(4-thieno[3,2-d]pyrimidin-4-ylpiperazin-1-yl)methanone]",100 to 1000
10,"COc1ccc(CNC(=O)c2ccc(-c3cnc4c(c3)N(Cc3cc(Cl)ccc3C(F)(F)F)CCN4)cc2)cc1 [Example 419, 4-{1-[5-Chloro-2-(trifluoromethyl)benzyl]-1,2,3,4-tetrahydropyrido[2,3-b]pyrazin-7-yl}-N-(4-methoxybenzyl)benzamide]",100 to 1000
11,"CN1CCC(NC(=O)c2cccc(-c3cnc4c(c3)N(Cc3cc(Cl)ccc3C(F)(F)F)CCN4)c2)CC1 [Example 329, 3-{1-[5-Chloro-2-(trifluoromethyl)benzyl]-1,2,3,4-tetrahydropyrido[2,3-b]pyrazin-7-yl}-N-(1-methylpiperidin-4-yl)benzamide]",< 100

# — patent US7601716B2, “Pyridopyrazines and derivatives thereof as ALK and c-Met inhibitors” (Cephalon, Inc., priority 2006, dated 2009)
